In ChEMBL document CHEMBL4024712, “Synthesis, stability and mechanistic studies of potent anticryptococcal hexapeptides” (Eur J Med Chem, 2017):
Converted amounts (≈) assume the structure as drawn. The source made the active and inactive calls. The rule behind the calls is not given here. Non-standard residues stand in square brackets, D forms with d. Residues, ends and D or L forms follow the SMILES beside them. Phe(4-Me) = Cc1ccc(C[C@H](N)C(=O)O)cc1; Orn = NCCC[C@H](N)C(=O)O

Tests used:
[1] = test system: Cryptococcus neoformans; test: Induction of cell lysis in Cryptococcus neoformans ATCC 90113 biofilm assessed as formation of pits at MIC after 1 hr by photungstic acid/ammonium molybdate/uranyl acetatebased scanning based transmission electron microscopic method; format: functional
[2] = test system: Lipid bilayer; test: Disruption of EYPC/EYPG small unilamellar vesicles assessed as disfigured liposomes at 0.5 ug/ml by phosphotungstic acid staining based transmission electron microscopic method
[3] = test system: Candida albicans; test: Antifungal activity against Candida albicans ATCC 90028 after 18 to 24 hrs by Alamar blue assay; format: functional
[4] = test system: Nakaseomyces glabratus; test: Antifungal activity against Candida glabrata ATCC 90030 after 18 to 24 hrs by Alamar blue assay; format: functional
[5] = test system: Pichia kudriavzevii; test: Antifungal activity against Candida krusei ATCC 6258 after 18 to 24 hrs by Alamar blue assay; format: functional; conditions: Pichia kudriavzevii, ATCC 6258
[6] = test system: Pichia kudriavzevii; test: Fungicidal activity against Candida krusei ATCC 6258 after 18 to 24 hrs by Alamar blue assay; format: functional
[7] = test system: Aspergillus fumigatus; test: Antifungal activity against Aspergillus fumigatus ATCC 90906 after 68 to 72 hrs by Alamar blue assay; format: functional
[8] = test system: Cryptococcus neoformans; test: Antifungal activity against Cryptococcus neoformans ATCC 90113 after 68 to 72 hrs by Alamar blue assay; format: functional
[9] = test system: Cryptococcus neoformans; test: Fungicidal activity against Cryptococcus neoformans ATCC 90113 after 68 to 72 hrs by Alamar blue assay; format: functional
[10] = test system: Mycobacterium intracellulare; test: Anti-bacterial activity against Mycobacterium intracellulare ATCC 23068 after 68 to 72 hrs by Alamar blue assay; format: functional, cell-based
[11] = test system: Staphylococcus aureus; test: Anti-bacterial activity against methicillin-resistant Staphylococcus aureus ATCC 33591 by CLSI method; format: functional; conditions: Staphylococcus aureus, ATCC 33591; read-out: IC50
[12] = test system: Staphylococcus aureus; test: Anti-bacterial activity against Staphylococcus aureus ATCC 29213 by CLSI method; format: functional; conditions: Staphylococcus aureus, ATCC 29213; read-out: IC50
[13] = test system: Escherichia coli; test: Anti-bacterial activity against Escherichia coli ATCC 35218 by CLSI method; format: functional; conditions: Escherichia coli, ATCC 35218
[14] = test system: Escherichia coli; test: Bactericidal activity against Escherichia coli ATCC 35218 by CLSI method; format: functional
[15] = test system: Pseudomonas aeruginosa; test: Anti-bacterial activity against Pseudomonas aeruginosa ATCC 27853 by CLSI method; format: functional; conditions: Pseudomonas aeruginosa, ATCC 27853; read-out: IC50
[16] = test system: Vero; test: Cytotoxicity against African green monkey Vero cells up to 10 ug/ml after 48 hrs by neutral red dye based assay; format: cell-based; conditions: chlorocebus sabaeus
[17] = Selectivity index ratio of cytotoxic concentration against African green monkey Vero cells to IC50 for Cryptococcus neoformans ATCC 90113; format: toxicity; conditions: read-out: Selectivity Index
[18] = test system: Lipid bilayer; test: Binding affinity to EYPC/EYPG small unilamellar vesicles at 0.1 uM by tryptophan fluorescence quenching assay
[19] = test system: Lipid bilayer; test: Binding affinity to EYPC/cholesterol small unilamellar vesicles at 0.1 uM by tryptophan fluorescence quenching assay; format: ADME
[20] = Proteolytic stability assessed as trypsin (unknown origin)-mediated compound hydrolysis at compound to trypsin ratio of 0.5 to […] measured after 24 hrs by RP-HPLC method; format: ADME; conditions: human
[21] = test system: Cryptococcus neoformans; test: Induction of cell lysis in Cryptococcus neoformans ATCC 90113 biofilm assessed as formation of holes at MIC after 1 hr by osmium tetroxide staining based scanning electron microscopic method; format: functional
[22] = test system: Lipid bilayer; test: Disruption of EYPC/EYPG small unilamellar vesicles assessed as lysed liposomes at 0.5 ug/ml by phosphotungstic acid staining based transmission electron microscopic method
[23] = test system: Lipid bilayer; test: Disruption of EYPC/cholesterol small unilamellar vesicles at 0.5 ug/ml by phosphotungstic acid staining based transmission electron microscopic method; format: ADME

Structure (SMILES): Cc1ccc(C[C@H](NC(=O)[C@@H](Cc2ccccc2)NC(=O)[C@@H](Cc2c[nH]c3ccccc23)NC(=O)[C@@H](N)CCCN)C(=O)N[C@H](Cc2ccccc2)C(=O)N[C@H](CCCCN)C(N)=O)cc1 (H-[Orn][dW][dF][Phe(4-Me)][dF][dK]-NH2)
- Activity [1]: Active
- Activity [2]: Active
- IC50 [3]: Not Active
- IC50 [4]: Not Active
- MIC [5]: 20 µg/mL (≈ 22.2 µM)
- IC50 ([5]; read-out: IC50): 12.1 µg/mL (≈ 13.4 µM)
- MFC [6]: 20 µg/mL (≈ 22.2 µM)
- IC50 [7]: Not Active
- IC50 [8]: 0.4 µg/mL (≈ 0.444 µM)
- MIC [8]: 0.63 µg/mL (≈ 0.699 µM)
- MFC [9]: 0.63 µg/mL (≈ 0.699 µM)
- IC50 [10]: Not Active
- IC50 [11]: > 20 µg/mL
- IC50 [12]: > 20 µg/mL
- MIC [13]: 20 µg/mL (≈ 22.2 µM)
- IC50 ([13]; read-out: IC50): 8.2 µg/mL (≈ 9.1 µM)
- MBC [14]: 20 µg/mL (≈ 22.2 µM)
- IC50 [15]: 20 µg/mL (≈ 22.2 µM)
- Activity [16]: Non-Toxic
- selectivity ratio [17]: 21 to 25
- Activity [18]: Active
- Activity [19]: Non-Toxic
- Stability [20]: Stable
- Activity [21]: Active
- Activity [22]: Active
- Activity [23]: Non-Toxic
